Experimental data: US12678413B2, “Compositions containing pterosin compound and derivatives thereof active ingredients for prevention or treatment of degenerative brain diseases” (priority 2017, dated 2026)
Like-named read-outs stand apart in the source and are kept apart here.

Tests used:
NIH3T3 cells = experiment: MTT cytotoxicity assay, normal cell line NIH3T3; type: cell-based; settings: NIH3T3 mouse embryo fibroblast, 48 hours incubation
Procedure: (§1) The normal cell line NIH3T3 (mouse embryo fibroblast cell-line) and the cancerous cell line B16F10 (mouse melanoma cell-line) were separately grown in 96-well plates and incubated for 48 hours with predetermined concentrations of each of the compounds. After additional incubation with MTT, absorbance at 550 nm was read using a microplate reader. Absorbance is an index accounting for a number of viable cells and was used to calculate cell proliferation rates according to the following formula. All experiments were conducted three times for reproducibility. Cell proliferation rate (%)=OD550(sample)/OD550(control)
(§2) Then, LD50 (Lethal Dose 50) values were calculated on the basis of changes in the cell proliferation rate.

B16F10 cells = experiment: MTT cytotoxicity assay, cancerous cell line B16F10; type: cell-based; settings: B16F10 mouse melanoma, 48 hours incubation
Procedure: as §1, §2

[1] = target: T1, acetylcholinesterase (AChE) (Electrophorus electricus, UniProt O42275); experiment: In vitro cholinesterase activity assay (Ellman), AChE; type: biochemical; settings: for IC50: concentrations up to 125 μM, Mean ± SEM, read-out: IC50 Acetylcholine Esterase Mean ± SEM; for SI: selectivity index (BChE/AChE): ratio of IC50 BChE/AChE
T1 construct: purchased Sigma-Aldrich Co. (St. Louis, MO, USA)
Procedure: (§3) The reaction started with the addition of 10 μL of DTNB and 10 μL of Ach or Bch.
(§4) Briefly, the basis for this assay is the hydrolysis of acetylthiocholine by acetylcholinesterase, producing thiocholine that reacts with DTNB. […] Degrees of inhibition were calculated according to […] wherein E and S represent enzyme activities in the presence and absence of a test sample, respectively.
(§5) The compounds of Table 1 were evaluated for anti-Alzheimer activity. In this regard, inhibitory activity against AChE (acetylcholinesterase) and BChE (butyrylcholinesterase), which lyse acetylcholine in the central nervous system, was measured according to the Experimental Method to calculate IC(inhibition concentrations)50 values.

[2] = target: T2, butyrylcholinesterase (BChE) (Equus caballus, UniProt P81908); experiment: In vitro cholinesterase activity assay (Ellman), BChE; type: biochemical; settings: concentrations up to 125 μM; Mean ± SEM; read-out: IC50 Butyrylcholine esterase Mean ± SEM
T2 construct: horse serum butyrylcholinesterase (BChE, EC3.1.1.8); purchased Sigma-Aldrich Co. (St. Louis, MO, USA); host or cells: horse serum
Procedure: as §3, §4, §5

[3] = target: T3, BACE1 (β-secretase, recombinant human enzyme) (Homo sapiens, UniProt P56817); experiment: In vitro BACE1 activity assay (FRET kit); type: biochemical; settings: compounds in 10% DMSO, concentrations up to 125 μM
T3 construct: purchased Pan Vera Co. (Madison, WI, USA)
Text: BACE1 (beta-secretase) FRET assay kit was purchased from Pan Vera Co. (Madison, WI, USA). All the chemicals and solvents used in column chromatography were of reagent grade and were used as received without further purification.
A BACE1 fluorescence resonance energy transfer (FRET) assay kit (β-secretase, recombinant human enzyme) was purchased from Pan Vera Co. (Madison, WI, USA).
BACE1 is an enzyme promotive of the production of β-amyloid, which destroys neurons. In order to examine the effects on the compounds of Table 1 on the activity of BACE1, IC(inhibition concentrations)50 values were determined by measuring BACE1 activity in vitro according to Experimental Methods.

BACE1 = target: T4, BACE1 (Homo sapiens, UniProt P56817); experiment: BACE1 enzyme kinetics (Dixon plot and Lineweaver plot); type: biochemical
T4 construct: purchased Pan Vera Co. (Madison, WI, USA)
Procedure: A BACE1 fluorescence resonance energy transfer (FRET) assay kit (β-secretase, recombinant human enzyme) was purchased from Pan Vera Co. (Madison, WI, USA). The assay was carried out according to the manual provided, with a modification made thereto as described by Jung et al. (Jung et al., Biol Pharm Bull, 2010, 33:267-272). Quercetin was used as a positive control.
In addition, an enzyme kinetics experiment was conducted using the Lineweaver plot and Dixon plot (see FIG. 7) in order to examine the BACE1 inhibition mechanism of the novel compound (Compound 2). […] The results of the experiment indicate that the novel compound of the present disclosure is a very potent inhibitor against BACE1.

[4] = target: T1, acetylcholinesterase (AChE); experiment: AChE enzyme kinetics (Dixon plot and Lineweaver plot); type: biochemical
Procedure: as §3, §4

[5] = target: T2, butyrylcholinesterase (BChE); experiment: BChE enzyme kinetics (Dixon plot and Lineweaver plot); type: biochemical
Procedure: as §3, §4

[6] = listed as 3-[2-(1-acetylcycloproply)-1-propenyl]-5-methyl-2-cyclopenten-1-one

T1 sequence (O42275 24-633): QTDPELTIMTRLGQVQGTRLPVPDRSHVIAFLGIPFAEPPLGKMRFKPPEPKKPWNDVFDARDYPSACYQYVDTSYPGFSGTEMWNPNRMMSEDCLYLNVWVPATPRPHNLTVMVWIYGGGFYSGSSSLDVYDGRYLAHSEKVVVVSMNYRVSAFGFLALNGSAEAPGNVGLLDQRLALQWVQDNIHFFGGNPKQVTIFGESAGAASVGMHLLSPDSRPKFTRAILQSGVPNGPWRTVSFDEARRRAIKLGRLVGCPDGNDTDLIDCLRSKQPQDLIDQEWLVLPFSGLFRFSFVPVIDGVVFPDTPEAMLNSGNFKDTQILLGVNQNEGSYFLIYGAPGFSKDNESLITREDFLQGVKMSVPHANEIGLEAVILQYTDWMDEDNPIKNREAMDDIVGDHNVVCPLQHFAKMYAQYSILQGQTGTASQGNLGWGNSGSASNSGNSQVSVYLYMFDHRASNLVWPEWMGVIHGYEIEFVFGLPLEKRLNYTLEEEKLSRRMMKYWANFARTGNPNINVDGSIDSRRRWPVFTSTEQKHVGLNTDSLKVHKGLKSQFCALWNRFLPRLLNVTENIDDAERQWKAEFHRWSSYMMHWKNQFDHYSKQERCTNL
T3 sequence (P56817 46-501): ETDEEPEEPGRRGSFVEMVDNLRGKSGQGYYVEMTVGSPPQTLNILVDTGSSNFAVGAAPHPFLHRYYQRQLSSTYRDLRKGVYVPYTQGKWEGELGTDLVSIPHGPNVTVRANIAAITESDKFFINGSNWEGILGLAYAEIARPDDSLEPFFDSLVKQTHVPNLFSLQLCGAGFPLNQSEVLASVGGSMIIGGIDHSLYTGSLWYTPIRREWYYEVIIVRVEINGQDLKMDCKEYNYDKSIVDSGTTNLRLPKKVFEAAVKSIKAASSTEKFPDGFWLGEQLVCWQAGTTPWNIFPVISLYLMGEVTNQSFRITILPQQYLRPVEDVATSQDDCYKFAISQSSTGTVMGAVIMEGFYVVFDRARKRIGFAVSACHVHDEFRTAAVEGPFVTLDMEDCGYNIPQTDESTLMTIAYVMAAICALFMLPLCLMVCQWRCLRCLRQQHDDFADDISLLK
T4 sequence (P56817 46-501): as above
T2 sequence (P81908 whole entry): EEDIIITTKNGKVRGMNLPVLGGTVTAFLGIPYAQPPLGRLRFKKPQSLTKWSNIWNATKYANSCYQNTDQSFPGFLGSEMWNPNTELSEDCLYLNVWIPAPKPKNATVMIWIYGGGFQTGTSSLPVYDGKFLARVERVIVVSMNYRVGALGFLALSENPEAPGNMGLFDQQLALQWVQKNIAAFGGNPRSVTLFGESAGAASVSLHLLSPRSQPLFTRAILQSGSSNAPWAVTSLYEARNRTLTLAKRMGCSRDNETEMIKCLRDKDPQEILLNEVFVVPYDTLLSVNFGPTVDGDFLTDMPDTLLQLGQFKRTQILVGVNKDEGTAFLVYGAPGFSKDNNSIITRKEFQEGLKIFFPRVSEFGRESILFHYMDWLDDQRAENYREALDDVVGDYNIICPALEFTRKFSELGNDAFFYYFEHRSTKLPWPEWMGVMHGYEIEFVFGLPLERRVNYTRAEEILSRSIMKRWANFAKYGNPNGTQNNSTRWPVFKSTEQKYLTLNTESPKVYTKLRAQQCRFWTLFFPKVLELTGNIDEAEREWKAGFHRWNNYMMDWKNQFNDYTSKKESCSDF

## Cc1cc2c(c(C)c1CCO)C(=O)C(C)(C)C2 [Compound 11, pterosin Z]
NIH3T3 cells; listed as PterosinZ
  LD50 Normal cell NIH3T3: 553 ± 37 µM
NIH3T3 cells; listed as pterosin Z
  LD50 Normal cell NIH3T3: 553 ± 37 µM
B16F10 cells; listed as PterosinZ
  LD50 Cancer cell B16F10: 618 ± 71 µM
B16F10 cells; listed as pterosin Z
  LD50 Cancer cell B16F10: 618 ± 71 µM
[1]
  IC50: 46.5 ± 3.4 µM
  SI: selectivity index (BChE/AChE): 1.7
[2]
  IC50: 80.1 ± 6.8 µM

## Cc1c(CCO[C@@H]2OC(CO)[C@@H](O)[C@H](O)C2O)c(CO)cc2c1C(=O)[C@@H](C)C2 (stereo partly drawn) [Compound 19, (2S)-pteroside P]
NIH3T3 cells
  LD50 Normal cell NIH3T3: >5,000 μM
B16F10 cells
  LD50 Cancer cell B16F10: >5,000 μM
[3]
  IC50: 81.3 ± 3.9 µM
[1]
  IC50: 57.5 ± 3.2 µM
  SI: selectivity index (BChE/AChE): 0.57
[2]
  IC50: 33.2 ± 3 µM

## COc1ccc2cc3[n+](cc2c1OC)CCc1cc2c(cc1-3)OCO2 [Berberine, reference compound]
[1]
  IC50: 0.39 ± 0.01 µM

## Cc1cc2c(c(C)c1CCO)C(=O)[C@@H](C)[C@@H]2O [Compound 6, (2S,3S)-pterosin C]
NIH3T3 cells
  LD50 Normal cell NIH3T3: >5,000 μM
B16F10 cells
  LD50 Cancer cell B16F10: >5,000 μM

## Cc1cc2c(c(C)c1CCO[C@@H]1OC(CO)[C@@H](O)[C@H](O)C1O)C(=O)C(C)(C)C2 (stereo partly shown) [Compound 20, pteroside Z]
NIH3T3 cells
  LD50 Normal cell NIH3T3: >5,000 μM
B16F10 cells
  LD50 Cancer cell B16F10: >5,000 μM
[3]
  IC50: 60 ± 4.3 µM
[1]
  IC50: 22.4 ± 2.2 µM
  SI: selectivity index (BChE/AChE): 0.24

## Cc1c(CCO)c(CO)cc2c1C(=O)[C@@H](C)C2 [Compound 10, (2S)-pterosin P]
NIH3T3 cells
  LD50 Normal cell NIH3T3: >5,000 μM
B16F10 cells
  LD50 Cancer cell B16F10: >5,000 μM
[1]
  IC50: 17.8 ± 0.62 µM
  SI: selectivity index (BChE/AChE): 3.1
[2]
  IC50: 55.9 ± 5.6 µM

## Cc1cc2c(c(C)c1CCO)C(=O)[C@H](C)C2 [Compound 4, (2R)-pterosin B]
NIH3T3 cells; listed as (2,R)-Pterosin B
  LD50 Normal cell NIH3T3: 3,110 ± 130 μM
NIH3T3 cells; listed as pterosin B
  LD50 Normal cell NIH3T3: 3,110±130 μM
B16F10 cells
  LD50 Cancer cell B16F10: >5,000 μM
[1]
  IC50: 16.2 ± 1 µM
  SI: selectivity index (BChE/AChE): 3.0
[2]
  IC50: 48.1 ± 0.59 µM
BACE1
  Inhibition type BACE1: noncompetitive type
  Ki: 38.3 µM
BACE1; listed as (2R)-Pterosin B
  Inhibition type BACE1: Noncompetitive
[4]
  Inhibition type Acetylcholinesterase: mixed type
  Ki: 12.1 µM
[4]; listed as (2R)-Pterosin B
  Inhibition type Acetylcholinesterase: Mixed-type
[5]
  Inhibition type Butyrylcholinesterase: noncompetitive type
  Ki: 53.5 µM
[5]; listed as (2R)-Pterosin B
  Inhibition type Butyrylcholinesterase: Noncompetitive

## Cc1cc2c(c(C)c1CCO[C@@H]1OC(CO)[C@@H](O)[C@H](O)C1O)C(=O)[C@](C)(CO)C2 (stereo partly drawn) [Compound 12, (2S)-pteroside A]
NIH3T3 cells
  LD50 Normal cell NIH3T3: >5,000 μM
B16F10 cells
  LD50 Cancer cell B16F10: >5,000 μM
[3]
  IC50: 84.6 ± 6 µM
[1]
  IC50: 110 ± 3 µM
  SI: selectivity index (BChE/AChE): 0.17
[2]
  IC50: 19.4 ± 0.22 µM

## CC(=O)C1(/C(C)=C\C2=CC(=O)C(C)C2)CC1 (stereo not shown) [Compound 2, 3-[2-(1-Acetylcyclopropyl)-1-propenyl)-5-methyl-2-cyclopenten-1-one]
NIH3T3 cells
  LD50 Normal cell NIH3T3: 1,550 μM
NIH3T3 cells; [6]
  LD50 Normal cell NIH3T3: 1,550 ± 100 μM
B16F10 cells
  LD50 Cancer cell B16F10: 688 µM
B16F10 cells; [6]
  LD50 Cancer cell B16F10: 688 ± 17 µM
[1]
  SI: selectivity index (BChE/AChE): 0.83
BACE1
  Ki: 19 µM
BACE1; [6]
  Inhibition type BACE1: Mixed-type
BACE1; listed as novel compound
  Inhibition type BACE1: mixed type

## Cc1cc2c(c(C)c1CCO)C(=O)C(C)(C)[C@@H]2O [Compound 9, (3R)-Pterosin D]
NIH3T3 cells
  LD50 Normal cell NIH3T3: >5,000 μM
B16F10 cells
  LD50 Cancer cell B16F10: >5,000 μM
[1]
  IC50: 68.7 ± 3.7 µM
[2]
  IC50: > 125 µM

## Cc1cc2c(c(C)c1CCO)C(=O)[C@](C)(COC1O[C@H](CO)[C@@H](O)[C@H](O)[C@H]1O)C2 (stereo partly drawn) [Compound 13, (2S)-pteroside A2]
NIH3T3 cells
  LD50 Normal cell NIH3T3: >5,000 μM
B16F10 cells
  LD50 Cancer cell B16F10: >5,000 μM
[1]
  IC50: 39.3 ± 1.9 µM
  SI: selectivity index (BChE/AChE): 3.0

## Cc1cc2c(c(C)c1CCO)C(=O)[C@](C)(CO)C2 [Compound 3, (2S)-pterosin A]
NIH3T3 cells
  LD50 Normal cell NIH3T3: >5,000 μM
B16F10 cells; listed as (2S)-Pterosin A
  LD50 Cancer cell B16F10: 522 ± 25 µM
B16F10 cells; listed as pterosin A
  LD50 Cancer cell B16F10: 522 ± 25 µM
[1]
  SI: selectivity index (BChE/AChE): 1.2

## Cc1cc2c(c(C)c1CCO)C(=O)[C@H](C)[C@@H]2O [Compound 5, (2R,3S)-pterosin C]
NIH3T3 cells
  LD50 Normal cell NIH3T3: >5,000 μM
B16F10 cells
  LD50 Cancer cell B16F10: >5,000 μM

## Cc1cc2c(c(C)c1CCO[C@@H]1OC(CO)[C@@H](O)[C@H](O)C1O)C(=O)[C@@H](C)[C@H]2O (stereo partly drawn) [Compound 15, (2S,3R)-pteroside C]
NIH3T3 cells
  LD50 Normal cell NIH3T3: >5,000 μM
B16F10 cells
  LD50 Cancer cell B16F10: >5,000 μM
[3]
  IC50: 28.9 ± 2.2 µM
[1]
  SI: selectivity index (BChE/AChE): 1.4

## Cc1cc2c(c(C)c1CCO)C(=O)[C@@H](C)[C@H]2O [Compound 8, (2S,3R)-pterosin C]
NIH3T3 cells
  LD50 Normal cell NIH3T3: >5,000 μM
B16F10 cells
  LD50 Cancer cell B16F10: >5,000 μM
[1]
  IC50: 12.8 ± 0.79 µM
  SI: selectivity index (BChE/AChE): 3.5
[2]
  IC50: 44.3 ± 1 µM
BACE1
  Inhibition type BACE1: noncompetitive type
  Ki: 33.8 µM
BACE1; listed as (2S,3R)-Pterosin C
  Inhibition type BACE1: Noncompetitive
[4]
  Inhibition type Acetylcholinesterase: mixed type
  Ki: 16.3 µM
[4]; listed as (2S,3R)-Pterosin C
  Inhibition type Acetylcholinesterase: Mixed-type
[5]
  Inhibition type Butyrylcholinesterase: noncompetitive type
  Ki: 29.9 µM
[5]; listed as (2S,3R)-Pterosin C
  Inhibition type Butyrylcholinesterase: Noncompetitive

## Cc1cc2c(c(C)c1CCO[C@@H]1OC(CO)[C@@H](O)[C@H](O)C1O)C(=O)[C@H](C)[C@H]2O (stereo partly drawn) [Compound 16, (2R,3R)-pteroside C]
NIH3T3 cells
  LD50 Normal cell NIH3T3: >5,000 μM
B16F10 cells
  LD50 Cancer cell B16F10: >5,000 μM
[3]
  IC50: 9.74 ± 1.9 µM
[1]
  SI: selectivity index (BChE/AChE): 1.4
BACE1
  Inhibition type BACE1: mixed type
  Ki: 12.6 µM
BACE1; listed as (2R,3R)-Pteroside C
  Inhibition type BACE1: Mixed-type

## Cc1cc2c(c(C)c1CCO)C(=O)[C@H](C)[C@H]2O [Compound 7, (2R,3R)-pterosin C]
NIH3T3 cells
  LD50 Normal cell NIH3T3: >5,000 μM
B16F10 cells
  LD50 Cancer cell B16F10: >5,000 μM
[1]
  IC50: 23.2 ± 4.6 µM
  SI: selectivity index (BChE/AChE): 0.89
[2]
  IC50: 20.3 ± 0.88 µM
BACE1
  Inhibition type BACE1: mixed type
  Ki: 27.6 µM
BACE1; listed as (2R,3R)-Pterosin C
  Inhibition type BACE1: Mixed-type
[4]
  Inhibition type Acetylcholinesterase: noncompetitive type
  Ki: 29.6 µM
[4]; listed as (2R,3R)-Pterosin C
  Inhibition type Acetylcholinesterase: Noncompetitive
[5]
  Inhibition type Butyrylcholinesterase: mixed type
  Ki: 4.77 µM
[5]; listed as (2R,3R)-Pterosin C
  Inhibition type Butyrylcholinesterase: Mixed-type

## Cc1cc2c(c(C)c1CCO[C@@H]1OC(CO)[C@@H](O)[C@H](O)C1O)C(=O)C(C)(C)[C@H]2O (stereo partly drawn) [Compound 17, (3S)-pteroside D]
NIH3T3 cells
  LD50 Normal cell NIH3T3: >5,000 μM
B16F10 cells
  LD50 Cancer cell B16F10: >5,000 μM
[3]
  IC50: 10.7 ± 1.5 µM
[1]
  SI: selectivity index (BChE/AChE): 0.70
BACE1
  Inhibition type BACE1: mixed type
  Ki: 16.5 µM
BACE1; listed as (3S)-Pteroside D
  Inhibition type BACE1: Mixed-type
